The target of experiment [1] is T1, SHP2^E76Q (Homo sapiens, UniProt Q06124, E76Q).
T1 sequence (Q06124 1-525 E76Q): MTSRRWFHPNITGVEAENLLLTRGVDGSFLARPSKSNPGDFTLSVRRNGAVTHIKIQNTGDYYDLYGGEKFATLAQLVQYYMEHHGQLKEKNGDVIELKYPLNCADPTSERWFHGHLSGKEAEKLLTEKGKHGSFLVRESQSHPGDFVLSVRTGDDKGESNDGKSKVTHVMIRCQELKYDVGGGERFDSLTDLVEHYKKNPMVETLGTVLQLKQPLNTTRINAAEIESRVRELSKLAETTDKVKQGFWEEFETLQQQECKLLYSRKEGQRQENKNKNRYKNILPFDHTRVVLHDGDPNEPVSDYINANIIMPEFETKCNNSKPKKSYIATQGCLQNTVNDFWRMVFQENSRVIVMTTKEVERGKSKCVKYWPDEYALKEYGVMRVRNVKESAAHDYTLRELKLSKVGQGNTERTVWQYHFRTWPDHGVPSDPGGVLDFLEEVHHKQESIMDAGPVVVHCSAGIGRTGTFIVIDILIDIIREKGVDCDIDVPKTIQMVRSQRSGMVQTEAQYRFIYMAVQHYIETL
Description: Basal DiFMUP dephosphorylation kinetics, E76Q. Conditions: substrate DiFMUP, basal (no peptide); 0.05 nM enzyme, Hepes pH 7.2. The format is biochemical.

Experiment [2] concerns the target T2, SHP2^S502P (Homo sapiens, UniProt Q06124, S502P).
T2 sequence (Q06124 1-525 S502P): T1 sequence (Q06124 1-525 E76Q) with Q76E, S502P
Description: Basal DiFMUP dephosphorylation kinetics, S502P. The class given is biochemical. Conditions: substrate DiFMUP, basal (no peptide); 0.025 nM enzyme, Hepes pH 7.2.

Experiment [3] has as its system SHP2^PTP. Conditions: substrate DiFMUP, basal (no peptide); 0.00625 nM enzyme, Hepes pH 7.2.
For experiment [4], the target named is T3, SHP2^WT (Homo sapiens, UniProt Q06124).
T3 sequence (Q06124 1-525): T1 sequence (Q06124 1-525 E76Q) with Q76E
Conditions: substrate DiFMUP, basal (no peptide); 2.5 nM enzyme, Hepes pH 7.2.

The target in experiment [5] is T1, SHP2^E76Q. Put plainly: Phosphopeptide activation of SHP2. The format is biochemical.
For experiment [6], the target named is T3, SHP2^WT. Put plainly: Phosphopeptide activation of SHP2. The class given is biochemical.
Experiment [7] has as its target T2, SHP2^S502P. Put plainly: Phosphopeptide activation of SHP2. The class given is biochemical.
Experiment [8] deals with SHP2 (both SH2 domains). Conditions: cited from earlier work.

We go through 3 compounds from paper PMC4900891 (Biochemistry, 2016).

Residue numbers refer to the chain shown, from its start. Several values for one entry are separate records, joined by “and”; a condition that tells them apart may be missing. Identical values can stand only once. Square brackets hold non-standard residues; d marks the D form. Peptide text beside a SMILES is read from it. pY = N[C@@H](Cc1ccc(OP(=O)(O)O)cc1)C(=O)O

What is called kcat/KM is the second-order rate constant that governs catalysis at low substrate concentration. A word on the EC50: it is the concentration giving half of the maximal effect. A low value points to an effect from little substance.

Regarding `Cc1cc(=O)oc2c(F)c(OP(=O)(O)O)c(F)cc12` [DiFMUP, 6,8-Difluoro-4-Methylumbelliferyl Phosphate], the catalytic efficiency (kcat/KM) in experiment [1] was 71000 M⁻¹ s⁻¹ and 71200 M⁻¹ s⁻¹; in experiment [2] it was 77000 M⁻¹ s⁻¹ and 76500 M⁻¹ s⁻¹; in experiment [3] it was 298000 M⁻¹ s⁻¹; in experiment [4] it was 2100 M⁻¹ s⁻¹.
Consider `CC[C@H](C)[C@H](NC(=O)[C@H](Cc1ccc(OP(=O)(O)O)cc1)NC(=O)[C@H](CC(N)=O)NC(=O)[C@H](CC(C)C)NC(=O)[C@@H](N)CO)C(=O)N[C@@H](CC(=O)O)C(=O)N[C@@H](CC(C)C)C(=O)N[C@@H](CC(=O)O)C(=O)N[C@@H](CC(C)C)C(=O)N[C@H](C(=O)N[C@@H](CCCCN)C(=O)O)C(C)C` [PY1172] (H-SLN[pY]IDLDLVK-OH), for which the EC50 in experiment [5] came to 350 nM; in experiment [6], 10000 nM; in experiment [7], 830 nM.
As for “SLNY(p)IDLDLVK-dPEG8-LSTY(p)ASINFQK [PY1172-PEG-PY1222]”, in experiment [8], the “SH2 domain occupancy and activation” value was “occupies both SH2 domains and induces full activation of the phosphatase”. The “sensitivity to bisphosphorylated peptide” value in experiment [5] (relative to SHP2^WT) and in experiment [7] (relative to SHP2^WT) was “greatest sensitivity” each time. Also, the extent of activation entry in experiment [6] (double-phosphorylated peptide, low-micromolar concentrations) is recorded as “complete activation”.
